Experimental data from US20170202939A1, “PERSONALIZED CANCER VACCINES AND METHODS THEREFOR” (Washington University, priority 2014, published 2017).
Where two headings read alike, the source gives them in different places. No end group written: not given here.

Legend:
DM6 cells expressing TMC = experiment: processing and presentation: T cells co-cultured with DM6 expressing tandem mini-gene constructs (51Cr release, IFN-γ ELISA); assay type: cell-based, human; details: for neoantigen processing and presentation (cytotoxic activity, IFN-γ production): DM6 expressing AAS-/MUT-encoding mini-gene construct
From the text: As illustrated in FIG. 9 and FIG. 10, to determine whether vaccine-induced T cells could recognize naturally processed antigen, the melanoma tumor cell line DM6 was transduced with a multi-mini-gene construct encoding mutated (MUT) or wild-type (WT) sequences of peptides incorporated into a vaccine. FIG. 9 illustrates that each minigene consists of 21 aa encoding either the MUT or WT sequences. A scheme depicting minigene construct characteristics and a representative MUT 21-mer aa sequence encoded in construct is shown. Vaccine-induced T cells, specific for AKAP13 containing the Q285K mutation, were incubated with MUT or WT expressing DM6 cells, supernatants collected after 24 h of incubation, and IFN-γ produced by T cells was measured in supernatants by ELISA (FIG. 10).
Tandem mini-gene constructs (TMC) were used for evaluating processing and presentation of neoantigens. All constructs were 19-21-mers encoding AAS- or WT-sequences for peptides included in vaccine. No spacers are present between sequences. A ubiquitination signal and two mini-gene controls (encoding G280 and WNV SVG9 peptides) were included to monitor processing and presentation. The amino acid sequence of a 21-mer encoding TMEM48 F169L is shown with mutated amino acid residue underlined. TMC also encoded the West Nile Virus (WNV) SVG9 (McMurtrey, C. P., et al., P.N.A.S., 105, 2981-2986, 2008) and melanoma G280 (Cox, A. L., et al., Science, 264, 716-719, 1994) antigenic determinants as controls (Table 6).
TMC were cloned into pMX (GFP+), expressed as retrovirus and used to transfect the HLA-A*02:01+ melanoma lines DM6 (Darrow, T. L., et al., J. Immunol., 142, 3329-3335, 1989) or A375 (obtained from ATCC and mycoplasma free). TMC expressing cells were selected by sorting for GFP+ cells expressing cell surface HLA-A*02:01/SVG9 peptide complexes as detected by a T cell receptor mimic (TCRm) monoclonal antibody (Kim S., et al., J. Immunol., 184, 4423-4430, 2010). AAS- and WT-TMC reactivity with the HLA-A*02:01/SVG9 peptide complex specific TCRm monoclonal antibody validated expression of the mini-gene constructs. […] Results are shown for parental DM6 (shaded histogram) and DM6 cells expressing AAS—(dashed line) and WT (solid line) TMC constructs. A representative experiment of four performed is shown.
DM6 cells expressing TMC were labeled with 25μCi ^51Cr for 1 h, washed and tested as targets in a standard 4 h assay using neoantigen-specific T cells as effectors (Carreno B. M. et al. 2012 J Immunol 188, 5839). DM6 cells expressing AAS—(closed rectangles) or WT—(closed circles) TMC were co-cultured with neoantigen-specific T cells at a 1:1 ratio, supernatants harvest at 16 h and IFN-γ production evaluated by ELISA as described (Carreno, B. M., et al., J Immunol., 188, 58395849, […]; plots in FIG. 38). Open triangles represent lysis obtained with parental DM6 cells. Percent specific lysis of triplicates (mean+standard deviation) is shown for each E:T ratio; spontaneous lysis was <5%. A representative experiment of two independent evaluations is shown.
FIG. 39 illustrates that neoantigen-specific CD8 T cells were co-cultured with DM6 expressing AAS- or WT-encoding TMC for 20 h and IFN-γ production determined by ELISA. T cells cultured with parental DM6 cells are indicated as media. Mean values+/−SD of duplicates are shown. Results are representative of 2 experiments performed. […] None of the neoantigen-specific T cells recognized WT-encoding TMC (FIGS. 38 and 39). Based on these findings and the immune monitoring results (FIG. 31), the nine neoantigens identified in this study fall into three distinct antigenic determinant categories (Sercarz, E. E., et al., Annu. Rev. Imunol., 11, 729-766, 1993; Assarsson, E., et al., J. Immunol., 178, 7890-7901, 2007).

HLA-A*02:01 = target: T1, HLA-A*02:01 (Homo sapiens, UniProt P04439, D140Y/D185E/D98H/E176V/E277Q/G131W/G231S/I119V/I121R/I166T/I218V/L300P/L318F/N151K/N90K/P208A/P217A/Q86G/Q94H/R138H/R169H/T345S); experiment: fluorescence polarization-based competitive peptide binding assay
T1 construct: purchased Pure Protein, L.L.C

[1] = fluorescence polarization-based competitive peptide-binding assay, high affinity log(IC50; nM) <3.7, read-out: Experimental Affinity log(IC50) (converted)

| Sequence | Recognition of processed antigen (DM6 cells expressing TMC) | neoantigen processing and presentation (cytotoxic activity, IFN-γ production) (DM6 cells expressing TMC) | IC50 (HLA-A*02:01; [1]) | neoantigen processing and presentation (cytotoxic activity, IFN-γ production) (DM6 cells expressing TMC; listed as AKAP13 (Q285K)) | neoantigen processing and presentation (cytotoxic activity, IFN-γ production) (DM6 cells expressing TMC; listed as AKAP13 Q285K) | IC50 (HLA-A*02:01) |
| --- | --- | --- | --- | --- | --- | --- |
| CLNEYHLFL | Yes | processed and presented | 1230 nM | – | – | – |
| IILVAVPHV | – | processed and presented | – | – | – | – |
| KLMNIQQKL | Yes | – | – | processed, presented and recognized by vaccine-induced T cells | processed and presented | 1170 nM |
| MLGEQLFPL | Yes | processed and presented | 224 nM | – | – | – |
| QLSCISTYV | No | not processed and presented | 1260 nM | – | – | – |
